Reference: patent publication US8372455B2, “Cosmetic composition with anti-free radical activity” (LVMH Recherche, priority 2006, dated 2013)

system: human keratinocytes (HaCaT); assay: Antioxidizing power (free radical scavenging) in H2O2-treated keratinocytes with the DCFH-DA fluorescent probe; format: cell-based; settings: 24 h treatment, 0.05 mg/ml ebselen, extract of Emblica, extract of Edelweiss, 0.1 μg/ml tocotrienol, idebenone, N-acetylcysteine, N=6, FIG. 1
From the text: To do this, the inventors used an in vitro test on a model of human keratinocytes, which consisted in the in situ generation of free radicals in the presence and absence of substances with anti-free radical activity, and then in quantification, with the aid of a fluorescent probe of the type dichlorofluorescein diacetate (DCFH-DA), of the free radicals still present in the cells. This probe is well known to those skilled in the art and its use makes it possible to measure the amount of free radicals present as a function of the fluorescence signal emitted.
The antioxidizing power according to the invention, which corresponds in practice to the free radical scavenging power of each substance with anti-free radical activity or an association of such substances, is obtained using the following formula (A): antioxidizing power=([…])×100 (A) in which: Δ control=difference in fluorescence values between the control not treated with an active substance or an association of such substances, and the control treated with the reference oxidizing agent hydrogen peroxide (H2O2); Δ test=difference in fluorescence values between the control treated with an active substance or an association of active substances, and the control treated with H2O2.
In practice, the value of Δ control represents the situation where the oxidation is greatest. This value is to be considered as that of 100% oxidation. It is then possible, by taking the ratio ([…])×100, to determine the percentage oxidation in the presence of an active substance or an association of such active substances. The antioxidizing power can then be calculated as the difference from the maximum value of 100, corresponding to application of the above formula. […]
The fluorescence emitted is then directly proportional to the concentration of free radicals that has reacted in the medium.
Thus, in the presence of a substance with anti-free radical activity, the DCFH present in the medium encounters fewer free radicals and the value of the fluorescence signal emitted decreases as a consequence. […]

Row | Compound | protective power (antioxidizing power) of individual substances with anti-free radical activity
1 | CC(=O)N[C@@H](CS)C(=O)O [N-acetylcysteine] | weakly protective
2 | COC1=C(OC)C(=O)C(CCCCCCCCCCO)=C(C)C1=O [idebenone, 2,3-dimethoxy-6-(10-hydroxydecyl)-5-methyl-1,4-benzo-quinone] | weakly protective
3 | alpha-tocotrienol | relatively high protective power
